The source of these data is ChEMBL document CHEMBL1201862, “PubChem BioAssay data set” (2004).

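Dose response: 5 concentrations. Exposure: 48 h. Format: 96-well plates. Endpoint: linear interpolation; highest concentration if not reached. GI50 is the concentration that inhibits growth by half.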 The source made the active and inactive calls. Rule as the data show it: active = GI50 up to about 1.1 µM and inactive = higher.

Common to all, as to assay: NCI anticancer screen, dose series, 48 h
Assay [1] deals with COLO 205.
For assay [2], the system named is DU-145.
The test system of assay [3] is HCC 2998.
Assay [4] has as its system HOP-92.
Assay [5] deals with IGROV-1.
For assay [6], the system named is K562.
Assay [7] deals with KM12.
Assay [8] has as its system Malme-3M.
In assay [9] the test system is NCI-H23.
Assay [10] deals with NCI-H522.
Assay [11] deals with OVCAR-3.
Assay [12] relates to OVCAR-5.
For assay [13], the system named is RPMI-8226.
In assay [14] the test system is SK-MEL-28.
Assay [15] has as its system SK-OV-3.
For assay [16], the system named is SNB-19.
In assay [17] the test system is U-251.
Assay [18] relates to UACC-257.
Assay [19] relates to UACC-62.
Assay [20] has as its system SF-539.

As for `CN1C(=O)C(C(N)=O)C2CC1(C)Oc1ccccc12` (stereo not given), the GI50 in [1], in assay [2], in assay [3], in assay [4], in assay [5] and in assay [6] was > 100 µM (inactive) throughout. In addition, the GI50 in assay [7], in [8], in [9], in assay [10], in assay [11] and in assay [12] was > 100 µM (inactive) each time. In addition, the GI50 in assay [13], in [14], in assay [15], in assay [16], in [17] and in assay [18] was > 100 µM (inactive) each time. Further, the GI50 in [19] was > 100 µM (inactive).
Regarding `O=C(NCc1ccccc1)c1cc2ccccc2o/c1=N\c1cccc(C(F)(F)F)c1`, the GI50 was 29.3 µM (inactive) in assay [1]; > 100 µM (inactive) in assay [2]; 21.2 µM (inactive) in assay [3]; 75.2 µM (inactive) in [4]; 81.3 µM (inactive) in assay [5]; 36.5 µM (inactive) in assay [6]. The GI50 in assay [7] is 48.6 µM (inactive); in [8] it was 48.1 µM (inactive); in [9], 57.7 µM (inactive); in [10] it was 39 µM (inactive); in assay [11], 67.3 µM (inactive); in [12], > 100 µM (inactive). The GI50 in [13] was 30.3 µM (inactive); in assay [14], > 100 µM (inactive); in [15], > 100 µM (inactive); in assay [16] it was > 100 µM (inactive); in assay [17], 71 µM (inactive); in assay [18], 29.5 µM (inactive). Besides, in assay [19], the GI50 was 52.2 µM (inactive).
Regarding `Nc1nc2c(ncn2CC2CCC(CO)C2)c(=O)[nH]1` (stereo not given), the GI50 in [1], in [2], in assay [3], in assay [4], in [6] and in assay [7] was > 100 µM (inactive) each time. Moreover, the GI50 in assay [11], in assay [12], in assay [13], in assay [20], in assay [14] and in assay [15] was > 100 µM (inactive) throughout. Moreover, the GI50 in assay [16] is > 100 µM (inactive); in assay [17] it was > 100 µM (inactive); in assay [18], > 100 µM (inactive); in assay [19], 29.2 µM (inactive).
Consider `CC1OC(=O)C(C(C)C)NC(=O)C(C(C)C)OC(=O)C(C(C)C)NC(=O)C(C)OC(=O)C(C(C)C)NC(=O)C(C(C)C)OC(=O)C(C(C)C)NC(=O)C(C)OC(=O)C(C(C)C)NC(=O)C(C(C)C)OC(=O)C(C(C)C)NC1=O` (stereo not given), for which the GI50 was 0.0025 µM (active) in assay [1]; 0.000102 µM (active) in [2]; 0.00256 µM (active) in assay [3]; 0.00255 µM (active) in [4]; 0.00275 µM (active) in [5]; 0.00299 µM (active) in assay [6]. Also, the GI50 in assay [7] is 0.00272 µM (active); in assay [8], 0.0025 µM (active); in assay [9], 0.0025 µM (active); in assay [11], 0.0025 µM (active); in assay [13], 0.0025 µM (active); in assay [20], 0.00333 µM (active). For the same compound, the GI50 is 0.0025 µM (active) in [14]; 0.00326 µM (active) in assay [15]; 0.00349 µM (active) in assay [16]; 0.0025 µM (active) in assay [17]; 0.0025 µM (active) in [18]; 0.0025 µM (active) in assay [19].
Turning to `CCOC(=O)C1=C(C)N(c2ccc(Cl)cc2)C2(O)C=CC(O)=C3C(=O)c4ccccc4C(=O)C312` (stereo not given), the GI50 in [1] is 3.72 µM (inactive); in assay [2], 8.09 µM (inactive); in assay [4], 1.73 µM (inactive); in assay [5], 3.94 µM (inactive); in [6], 4.23 µM (inactive); in [7], 6.97 µM (inactive). Also, the GI50 in assay [8] is 0.483 µM (active); in assay [9], 10.1 µM (inactive); in assay [10], 2.21 µM (inactive); in assay [11] it was 1.91 µM (inactive); in assay [12] it was 12.9 µM (inactive); in assay [13] it was 1.8 µM (inactive). The GI50 in assay [20] was 4.16 µM (inactive); in assay [15], 10.6 µM (inactive); in assay [16] it was 12.9 µM (inactive); in assay [17], 3.59 µM (inactive); in assay [18] it was 18.2 µM (inactive); in [19], 3.44 µM (inactive).
Regarding `NC(=S)Nc1ccc2c(c1)oc1ccccc12`, the GI50 in [1], in assay [2], in [3], in assay [4], in [5] and in [6] was > 100 µM (inactive) in each case. Moreover, the GI50 in assay [7] is > 100 µM (inactive); in [8] it was 8.11 µM (inactive); in [9], > 83.6 µM (inactive); in assay [10] it was 7.57 µM (inactive); in assay [11], > 100 µM (inactive); in assay [12], > 100 µM (inactive). Moreover, the GI50 in assay [13] was 11.7 µM (inactive); in assay [14], > 100 µM (inactive); in [15] it was > 100 µM (inactive); in [16], > 100 µM (inactive); in [17], > 100 µM (inactive); in assay [18], > 100 µM (inactive). The GI50 in assay [19] was > 100 µM (inactive).
With `[N-]=[N+]=NC1=C(c2ccccn2)C(=O)c2cccc3cccc1c23`, the GI50 in assay [1] was 76.9 µM (inactive); in assay [2] it was 39.7 µM (inactive); in assay [3], 57.5 µM (inactive); in assay [4], 29.9 µM (inactive); in [5], 14.8 µM (inactive); in assay [6], 23.2 µM (inactive). The GI50 is 25.4 µM (inactive) in [7]; 49.2 µM (inactive) in assay [8]; 19.2 µM (inactive) in assay [9]; 27.7 µM (inactive) in assay [11]; 79.6 µM (inactive) in [12]; 34 µM (inactive) in assay [13]. In addition, the GI50 in assay [20] is 32.8 µM (inactive); in assay [14], > 100 µM (inactive); in [15], 36.7 µM (inactive); in assay [16], 28.6 µM (inactive); in [17] it was 29.2 µM (inactive); in assay [18], 32.8 µM (inactive). Besides, the GI50 in [19] is 20 µM (inactive).
In the case of `CCOP(=O)(C[S+](C)[O-])O[C@@H]1C[C@H](C)CC[C@H]1C(C)C` (stereo not given in full), the GI50 in assay [1] is 6.19 µM (inactive); in assay [2], 6.37 µM (inactive); in assay [4] it was 3.97 µM (inactive); in assay [5], 3.25 µM (inactive); in [6], 3.4 µM (inactive); in assay [7] it was 3.14 µM (inactive). Further, the GI50 was 11 µM (inactive) in assay [8]; 4.13 µM (inactive) in assay [9]; 2.26 µM (inactive) in [10]; 4.44 µM (inactive) in assay [11]; 4.28 µM (inactive) in assay [12]; 1.85 µM (inactive) in assay [13]. For the same compound, the GI50 was 12.2 µM (inactive) in assay [20]; > 100 µM (inactive) in assay [14]; 6.95 µM (inactive) in [15]; 12.2 µM (inactive) in [16]; 4.59 µM (inactive) in [17]; 6.4 µM (inactive) in assay [18]. Also, in assay [19], the GI50 is 2.17 µM (inactive).
In the case of `Cc1ccc(S(=O)(=O)NC(=O)NC(CCCCN)C(=O)O)cc1` (stereo not given), the GI50 in [1] is > 100 µM (inactive); in [2], > 100 µM (inactive); in assay [4], 70 µM (inactive); in assay [5], > 100 µM (inactive); in assay [6], > 100 µM (inactive); in assay [7], > 100 µM (inactive). Also, the GI50 in assay [8], in [9], in assay [10], in assay [13], in assay [20] and in assay [14] was > 100 µM (inactive) in each case. The GI50 in [15], in assay [16], in [17], in [18] and in assay [19] was > 100 µM (inactive) throughout.
As to `CC1(CCC(=O)OC2CCCCC2)OCCO1`, the GI50 in [1], in assay [2], in assay [4], in [5], in assay [6] and in assay [7] was > 100 µM (inactive) throughout. Besides, the GI50 in assay [8], in assay [9], in [10], in assay [11], in [12] and in assay [13] was > 100 µM (inactive) in each case. The GI50 in assay [20], in [14], in assay [15], in assay [16], in [17] and in assay [18] was > 100 µM (inactive) each time. Besides, in [19], the GI50 is > 100 µM (inactive).
As for `COC(=O)[C@H](Cc1ccccc1)NC(=O)N(CCC#N)CCN(C(=O)N[C@@H](Cc1ccccc1)C(=O)OC)c1ccccc1`, the GI50 in assay [1] is 25 µM (inactive); in assay [2], 29.1 µM (inactive); in [3], 28.2 µM (inactive); in assay [4] it was 18.7 µM (inactive); in assay [5], 20.8 µM (inactive); in assay [7], 37.3 µM (inactive). In addition, the GI50 in assay [9] was 32.7 µM (inactive); in assay [11], 19.9 µM (inactive); in [12] it was > 100 µM (inactive); in assay [13] it was 21 µM (inactive); in assay [20], 20.8 µM (inactive); in assay [14] it was 18.2 µM (inactive). Moreover, the GI50 is 46.8 µM (inactive) in [15]; 49.5 µM (inactive) in assay [16]; > 10 µM (inactive) in [17]; 20 µM (inactive) in [18]; 3.34 µM (inactive) in assay [19].
